Earlier results in patent US20190021385A1, “ORALLY DISSOLVABLE COMPOSITIONS FOR NUTRITION SUPPLEMENTATION” (Exeltis USA, Inc., priority 2017, published 2019).

Conditions: intake of about 1000 IU per day, all adults; Bischoff-Ferrari 2008

## C=C1CC[C@H](O)C/C1=C/C=C1\CCC[C@]2(C)[C@@H]([C@H](C)CCCC(C)C)CC[C@@H]12 [vitamin D3, cholecalciferol]
  share of the population brought up to the 30 ng/ml serum range for 25-hydroxyvitamin D: at least 50%
